Results published in EPA's ToxValDB 9.5.

How the values were obtained:
[1] = acute, duration: 1 days, injection, intraperitoneal, M, Sprague-Dawley, anti-edema effect (reduction in paw edema)
[2] = chronic, duration: 2 years, oral, diet, F, Sprague-Dawley, blood: eosinophils (18 months)
[3] = short-term, duration: 14 days, oral, gavage, M, Crj:CD, red blood cell count
[4] = short-term, duration: 14 days, oral, gavage, M, Crj:CD, white blood cell count
[5] = subchronic, duration: 90 days, oral, diet, M, blood: leukocytes (3 months)
[6] = subchronic, duration: 90 days, oral, diet, M, blood: monocytes (1 month)
[7] = reproduction developmental, oral, gavage, M, C57BL/6, generation: F1, F1: spleen: mean percent splenic CD4+CD25+Foxp3+ T cells
[8] = short-term, duration: 4 weeks, oral, gavage, M, TNF-alpha mRNA levels in liver (normalized to GAPDH)
[9] = short-term, duration: 4 days, dermal, F, BALB/c, body weight + thymus: thymus: absolute weight

O=C([O-])C(F)(F)C(F)(F)C(F)(F)C(F)(F)C(F)(F)C(F)(F)C(F)(F)F.[NH4+] [Ammonium perfluorooctanoate]
LOEL (Rattus norvegicus; [1]): 50 mg/kg-day | NOEL (Rattus norvegicus; [1]): 25 mg/kg-day | NOEL (Rattus norvegicus; acute, duration: 1 days, injection, intraperitoneal, M, Sprague-Dawley, paw thickness (0.5 hr) + paw thickness (1 hr) + paw thickness (time 0)): 150 mg/kg-day | LOEL (Rattus norvegicus; acute, duration: 1 days, injection, intraperitoneal, M, Sprague-Dawley, paw thickness (3 hrs, […] after PFOA) + paw thickness (4 hrs, 2.5 hrs after PFOA)): 150 mg/kg-day | LOEL (Rattus norvegicus; acute, duration: 1 days, injection, intraperitoneal, M, Sprague-Dawley, paw thickness ([…]) + paw thickness (2 hr) + paw thickness (3 hr) + paw thickness (4 hr)): 150 mg/kg-day | NOEL (Rattus norvegicus; acute, duration: 1 days, injection, intraperitoneal, M, Sprague-Dawley, paw thickness ([…], time of PFOA injection) + paw thickness (2 hrs, 0.5 hrs after PFOA)): 150 mg/kg-day | NOEL (Rattus norvegicus; acute, duration: 1 days, injection, intraperitoneal, M, Sprague-Dawley, paw thickness (edema): 0 hr, after carrageenan + paw thickness (edema): 0 hr, before carrageenan + paw thickness (edema): 0.5 hr + paw …): 100 mg/kg-day | LOEL (Rattus norvegicus; acute, duration: 1 days, injection, intraperitoneal, M, Sprague-Dawley, paw thickness (edema): […] + paw thickness (edema): 2 hr + paw thickness (edema): 2.5 hr + paw thickness (edema): 3 hr + paw thickness (…): 100 mg/kg-day | NOEL (Rattus norvegicus; acute, duration: 24 hours, injection, intraperitoneal, M, Fischer 344, blood serum: TNF-alpha levels): 150 mg/kg-day | NOEL (Rattus norvegicus; chronic, duration: 2 years, oral, diet, F, Sprague-Dawley, blood: eosinophils (12 months) + blood: eosinophils (24 months) + blood: eosinophils (3 months) + blood: eosinophils (6 months) + blood: …): 23.4 mg/kg-day | LOEL (Rattus norvegicus; [2]): 23.4 mg/kg-day | NOEL (Rattus norvegicus; [2]): 2.34 mg/kg-day | LOEL (Rattus norvegicus; chronic, duration: 2 years, oral, diet, F, Sprague-Dawley, blood: lymphocytes (18 months) + blood: neutrophils (18 months) + spleen: spleen: absolute weight (2 years) + spleen: spleen: relative …): 2.34 mg/kg-day | NOEL (Rattus norvegicus; chronic, duration: 2 years, oral, diet, M, Sprague-Dawley, blood: eosinophils (12 months) + blood: eosinophils (18 months) + blood: eosinophils (24 months) + blood: eosinophils (3 months) + blood: …): 23.4 mg/kg-day | LOEL (Rattus norvegicus; chronic, duration: 2 years, oral, diet, M, Sprague-Dawley, blood: leukocyte count (12 months) + blood: leukocyte count (3 months) + blood: leukocyte count (6 months) + blood: lymphocytes (18 months…): 2.34 mg/kg-day | NOEL (Rattus norvegicus; short-term, duration: 14 days, oral, gavage, M, Crj:CD, blood: NKR-P1A+ + CD3+ + CD4+ + CD45RA+ + CD8a+ + lymphocyte + monocyte + NKR-P1A+ + spleen: spleen: absolute weight + spleen: spleen: …): 50 mg/kg-day | LOEL (Rattus norvegicus; [3]): 50 mg/kg-day | NOEL (Rattus norvegicus; [3]): 5 mg/kg-day | LOEL (Rattus norvegicus; [4]): 5 mg/kg-day | NOEL (Rattus norvegicus; [4]): 0.5 mg/kg-day | NOEL (Rattus norvegicus; short-term, duration: 24 days, oral, gavage, M, Crl:CD(SD) BR, IgM antibody titer (SRBC) + mean serum corticosterone + spleen: incidence of spleen hematopoiesis + spleen: spleen: absolute weight + spleen…): 30 mg/kg-day | LOEL (Rattus norvegicus; short-term, duration: 24 days, oral, gavage, M, Crl:CD(SD) BR, thymus: thymus: relative weight): 30 mg/kg-day | NOEL (Rattus norvegicus; short-term, duration: 28 days, oral, gavage, F, Sprague-Dawley, basophils + eosinophils + lymphocytes + monocytes + neutrophils + spleen: spleen: absolute weight + spleen: spleen: relative weight + thymus…): 30 mg/kg-day | NOEL (Rattus norvegicus; short-term, duration: 28 days, oral, gavage, F, Sprague-Dawley, basophils + eosinophils + lymphocytes + monocytes + spleen: spleen: absolute weight + spleen: spleen: relative weight + thymus: thymus: …): 30 mg/kg-day | LOEL (Rattus norvegicus; short-term, duration: 28 days, oral, gavage, F, Sprague-Dawley, neutrophils): 30 mg/kg-day | NOEL (Rattus norvegicus; short-term, duration: 28 days, oral, gavage, M, Sprague-Dawley, basophils + eosinophils + lymphocytes + monocytes + neutrophils + spleen: spleen: absolute weight + spleen: spleen: relative weight + thymus…): 30 mg/kg-day | NOEL (Rattus norvegicus; short-term, duration: 28 days, oral, gavage, M, Sprague-Dawley, basophils + eosinophils + lymphocytes + neutrophils + spleen: spleen: absolute weight + spleen: spleen: relative weight + thymus: thymus: …): 30 mg/kg-day | LOEL (Rattus norvegicus; short-term, duration: 28 days, oral, gavage, M, Sprague-Dawley, monocytes + thymus: thymus: absolute weight): 30 mg/kg-day | NOEL (Rattus norvegicus; short-term, duration: 29 days, oral, gavage, M, Crl:CD(SD) BR, IgM antibody titer (SRBC) + mean serum corticosterone + spleen: incidence of spleen hematopoiesis + spleen: spleen: relative weight + spleen…): 30 mg/kg-day | NOEL (Rattus norvegicus; subchronic, duration: 90 days, oral, diet, F, blood: basophils (1 month) + blood: basophils (3 months) + blood: eosinophils (1 month) + blood: eosinophils (3 months) + blood: leukocytes…): 96 mg/kg-day | NOEL (Rattus norvegicus; subchronic, duration: 90 days, oral, diet, M, blood: basophils (1 month) + blood: basophils (3 months) + blood: eosinophils (1 month) + blood: eosinophils (3 months) + blood: leukocytes…): 96 mg/kg-day | LOEL (Rattus norvegicus; [5]): 28.8 mg/kg-day | NOEL (Rattus norvegicus; [5]): 9.6 mg/kg-day | LOEL (Rattus norvegicus; [6]): 2.88 mg/kg-day | NOEL (Rattus norvegicus; [6]): 0.96 mg/kg-day | LOEL (Mus musculus; acute, duration: 1 days, injection, intraperitoneal, serum histamine content): 1 mg/kg-day | NOEL (Mus musculus; developmental, duration: 9 days, oral, drinking water, F, C57BL/6, generation: F1, F1: IgM antibody titer (SRBC) + F1: spleen: spleen: relative weight + F1: thymus: thymus: relative weight): 6.7 mg/L | NOEL (Mus musculus; developmental, duration: 16 days, oral, gavage, F, CD1, generation: F1, F1: spleen: spleen: relative weight (ovx)): 5 mg/kg-day | NOEL (Mus musculus; reproduction developmental, oral, diet, M/F, BALB/c, generation: F1, F1: airway MCh sensitivity + F1: airway resistance (at 25 mg/mL methacholine) + F1: lung: BALF inflammatory cell counts: eosinophils + F1: …): 4 ppm | LOEL (Mus musculus; reproduction developmental, oral, diet, M/F, BALB/c, generation: F1, F1: airway MCh sensitivity + F1: airway resistance (at 25 mg/mL methacholine) + F1: lung: BALF inflammatory cell counts: macrophages + F1: …): 4 ppm | NOEL (Mus musculus; reproduction developmental, oral, gavage, F, C57BL/6, generation: F1, F1: mean serum anti-MBP): 2 mg/kg-day | NOEL (Mus musculus; reproduction developmental, oral, gavage, F, C57BL/6, generation: F1, F1: mean serum anti-dsDNA + F1: spleen: mean percent splenic CD4+CD25+Foxp3+ T cells): 0.2 mg/kg-day | LOEL (Mus musculus; reproduction developmental, oral, gavage, F, C57BL/6, generation: F1, F1: mean serum anti-ssDNA + F1: spleen (CD4+CD25+): IL-10 levels): 0.02 mg/kg-day | LOEL (Mus musculus; reproduction developmental, oral, gavage, F, C57BL/6, generation: F1, F1: spleen: mean percent splenic CD4+CD25+Foxp3+ T cells): 2 mg/kg-day | NOEL (Mus musculus; reproduction developmental, oral, gavage, M, C57BL/6, generation: F1, F1: mean serum anti-dsDNA + F1: mean serum anti-MBP + F1: mean serum anti-ssDNA): 2 mg/kg-day | LOEL (Mus musculus; reproduction developmental, oral, gavage, M, C57BL/6, generation: F1, F1: spleen (CD4+CD25+): IL-10 levels): 0.02 mg/kg-day | LOEL (Mus musculus; [7]): 2 mg/kg-day | NOEL (Mus musculus; [7]): 0.2 mg/kg-day | NOEL (Mus musculus; short-term, duration: 3 weeks, oral, diet, M, C57BL/6, fold changes of proinflammatory cytokine genes in liver: IL-1b gene (relative to control) + fold changes of proinflammatory cytokine genes …): 5 mg/kg-day | LOEL (Mus musculus; short-term, duration: 3 weeks, oral, diet, M, C57BL/6, fold changes of proinflammatory cytokine genes in liver: IP-10 gene (relative to control) + fold changes of proinflammatory cytokine genes …): 5 mg/kg-day | NOEL (Mus musculus; short-term, duration: 3 weeks, oral, gavage, F, BALB/c, IgM antibody level (TNP 1:50)): 20 mg/kg-day | NOEL (Mus musculus; short-term, duration: 4 weeks, oral, gavage, M, 129S4/SvlmJ, TNF-alpha mRNA levels in liver (normalized to GAPDH)): 21.6 mg/kg-day | LOEL (Mus musculus; [8]): 10.8 mg/kg-day | NOEL (Mus musculus; [8]): 5.39 mg/kg-day | NOEL (Mus musculus; short-term, duration: 2 days, oral, diet, M, C57BL/6, spleen: spleen: absolute weight + thymus: thymus: absolute weight + thymus: total thymic DNA content): 0.02% | LOEL (Mus musculus; short-term, duration: 2 days, oral, diet, M, C57BL/6, spleen: total splenic DNA content): 0.02% | NOEL (Mus musculus; short-term, duration: 4 days, dermal, F, BALB/c, OVA-specific IgE): 1.5% | LOEL (Mus musculus; short-term, duration: 4 days, dermal, F, BALB/c, PCA passive cutaneous anaphylaxis): 10 mg/kg-day | LOEL (Mus musculus; short-term, duration: 4 days, dermal, F, BALB/c, blood serum: OVA-specific IgE + blood serum: total serum IgE + OVA-specific airway hyperreactivity (AUC) + spleen: spleen B220+ cells + …): 1% | NOEL (Mus musculus; short-term, duration: 4 days, dermal, F, BALB/c, blood serum: OVA-specific IgE + blood serum: total serum IgE + OVA-specific airway hyperreactivity (AUC) + thymus: thymus cellularity + …): 0.75% | NOEL (Mus musculus; short-term, duration: 4 days, dermal, F, BALB/c, blood serum: OVA-specific IgE + spleen: spleen B220+ cells + spleen: spleen: absolute weight + thymus: thymus: absolute weight + total serum…): 0.5% | LOEL (Mus musculus; short-term, duration: 4 days, dermal, F, BALB/c, blood serum: OVA-specific IgE + thymus: thymus: absolute weight + total serum IgE): 0.75% | LOEL (Mus musculus; [9]): 1.5% | NOEL (Mus musculus; [9]): 1% | LOEL (Mus musculus; short-term, duration: 4 days, dermal, F, BALB/c, spleen: spleen cellularity + spleen: spleen: absolute weight): 0.5% | LOEL (Mus musculus; short-term, duration: 5 days, oral, diet, M, C57BL/6, spleen: spleen: absolute weight + spleen: total splenic DNA content + thymus: thymus: absolute weight + thymus: total thymic DNA content): 0.02% | LOEL (Mus musculus; short-term, duration: 7 days, oral, diet, M, C57BL/6, blood serum: TNF-alpha levels): 0.02% | LOEL (Mus musculus; short-term, duration: 7 days, oral, diet, M, C57BL/6, body weight + spleen: lymphocyte proliferation (ConA) + spleen: lymphocyte proliferation (LPS) + spleen: spleen CD19+ cells + spleen: spleen…): 0.02% | NOEL (Mus musculus; short-term, duration: 7 days, oral, diet, M, C57BL/6, cell cycle of splenocytes: G0/G1 phase + cell cycle of splenocytes: G1/2 phase + cell cycle of splenocytes: G2/M phase): 0.02% | LOEL (Mus musculus; short-term, duration: 7 days, oral, diet, M, C57BL/6, cell cycle of splenocytes: S phase + cell cycle of thymocytes: G0/G1 phase + cell cycle of thymocytes: G1/2 phase + cell cycle of thymocytes…): 0.02% | LOEL (Mus musculus; short-term, duration: 7 days, oral, diet, M, C57BL/6, lymphocyte proliferation in response to ConA (1 day culture) + lymphocyte proliferation in response to ConA (2 day culture) + lymphocyte …): 200 mg/kg-day | NOEL (Mus musculus; short-term, duration: 7 days, oral, diet, M, C57BL/6, spleen: splenocytes in G0/1 phase + splenocytes in G1/2 phase + splenocytes in G2/M phase): 200 mg/kg-day | LOEL (Mus musculus; short-term, duration: 7 days, oral, diet, M, body weight + spleen: spleen CD19+ cells + spleen: spleen CD3+ cells + spleen: spleen cellularity + thymocyte G0/1 phase + thymocyte G1/2 …): 0.02% | NOEL (Mus musculus; short-term, duration: 7 days, oral, diet, M, spleen: lymphocyte proliferation (ConA) + spleen: lymphocyte proliferation (LPS)): 0.02% | LOEL (Mus musculus; short-term, duration: 7 days, oral, gavage, F, BALB/c, Peripheral blood phagocytosis (HEMA) + spleen: lymphocyte proliferation (ConA) + spleen: lymphocyte proliferation (LPS) + Splenic NK cell …): 20 mg/kg-day | NOEL (Mus musculus; short-term, duration: 7 days, oral, gavage, F, BALB/c, spleen: spleen CD4+ cells + spleen: spleen CD49b+ cells + spleen: spleen CD8+ cells + spleen: spleen cellularity + spleen: spleen: relative …): 20 mg/kg-day | LOEL (Mus musculus; short-term, duration: 10 days, oral, diet, M, C57BL/6, IgG1 antibody-secreting cells (HRBC) + IgG1 antibody level (HRBC 1:160) + IgG1 antibody level (HRBC 1:20) + IgG1 antibody level (HRBC 1:80…): 0.02% | NOEL (Mus musculus; short-term, duration: 10 days, oral, diet, M, C57BL/6, IgG3 antibody-secreting cells (HRBC) + IgM antibody-secreting cells (HRBC) + IgM antibody level (HRBC 1:160)): 0.02%
